Experimental data published in patent US10906878B2, “Kinase inhibitors for the treatment of disease” (Dana-Farber Cancer Institute, Inc., priority 2013, dated 2021).

Tests used:
Assay type in all cases: cell-based
[1] = target: EGFR L858R/T790M Ba/F3 cells (Homo sapiens (Human), UniProt P00533, L858R/T790M); test: Ba/F3 cell growth inhibition (MTS assay), EGFR L858R/T790M; conditions: for IC50: Assay 1, L858R/T790M, read-out: EGFR Ba/F3 cells IC 50 (nM) Assay 1 L858R/T790M
Excerpt: (§1) The specific cDNAs encoding the oncogenic alterations (EGFR: Del 19, L858R, L718Q, L844V, Del/T790M, L858R/T790M, Del 19/L718Q, Del 19/L844V, Del 19/T790M/L718Q and L858R/T790M/L718Q; FGFR: TEL-FGFR1, TEL-FGFR2, TEL-FGFR1 V561M, TEL-FGFR2 V561M; ALK: EML4-ALK; ROS1: CD74-ROS1) were cloned into the pDNA-Dual (BD Biosciences) vector using standard molecular biology techniques. Mutations were introduced using site-directed mutagenesis (Agilent) with mutant specific primers according to the manufacturer's instructions. All constructs were confirmed by DNA sequencing. The constructs were introduced into Ba/F3 cells using retroviral infection. Polyclonal cell lines were established by puromycin selection and subsequently cultured in the absence of interleukin-3 (IL-3). Uninfected Ba/F3 cells or cell lines expressing green fluorescent protein (GFP) were used as controls.
(§2) Growth and inhibition of growth was assessed by MTS assay. This assay, a colorimetric method for determining the number of viable cells, is based on the bioreduction of 3-(4,5-dimethylthiazol-2-yl)-5-(3-carboxymethoxyphenyl)-2-(4-sulfophenyl)-2H-tetrazolium (MTS) by cells to a formazan product that is soluble in cell culture medium, can be detected spectrophotometrically and was performed according to the manufacturer's recommended conditions. Ba/F3 cells were exposed to treatment for 72 hours and the number of cells used per experiment determined empirically to assure linear growth kinetics over that time period. All experimental points were set up in six to twelve wells and all experiments were repeated at least three times. […] The curves were fitted using a non-linear regression model with a sigmoidal dose response.

[2] = target: EGFR L858R Ba/F3 cells (Homo sapiens (Human), UniProt P00533, L858R); test: Ba/F3 cell growth inhibition (MTS assay), EGFR L858R; conditions: for IC50: Assay 1, L858R, read-out: EGFR Ba/F3 cells IC 50 (nM) Assay 1 L858R
Excerpt: as §1, §2

[3] = target: EGFR Del/T790M Ba/F3 cells (Homo sapiens, UniProt P00533, T790M, cells depend on it, form not given); test: Ba/F3 cell growth inhibition (MTS assay), EGFR Del/T790M; conditions: for EGFR activity (% Control, 100 nM drug) Del/T790M: Table G; for EGFR activity (% Control, 100 nM drug) DEL/T790M: Table F; for IC50: Assay 1, Del/T790M, read-out: EGFR Ba/F3 cells IC 50 (nM) Assay 1 Del/T790M
Excerpt: as §1, §2

[4] = target: EGFR Del Ba/F3 cells (Homo sapiens, UniProt P00533, cells depend on it, form not given); test: Ba/F3 cell growth inhibition (MTS assay), EGFR Del; conditions: for IC50: Assay 1, Del, read-out: EGFR Ba/F3 cells IC 50 (nM) Assay 1 Del
Excerpt: as §1, §2

[5] = target: EGFR L858R/T790M/L718Q Ba/F3 cells (Homo sapiens (Human), UniProt P00533, L718Q/L858R/T790M); test: Ba/F3 cell growth inhibition (MTS assay), EGFR L858R/T790M/L718Q; conditions: for EGFR activity (% Control, 100 nM drug) L858R/T790M/L718Q: Table F; for IC50: Assay 1, T/L/L718Q, read-out: EGFR Ba/F3 cells IC 50 (nM) Assay 1 T/L/L718Q
Excerpt: as §1, §2

[6] = target: EGFR L718Q/L858R Ba/F3 cells (Homo sapiens (Human), UniProt P00533, L718Q/L858R); test: Ba/F3 cell growth inhibition (MTS assay), EGFR L858R/L718Q; conditions: for EGFR activity (% Control, 100 nM drug) L858R/L718Q: Table F; for IC50: Assay 1, L718Q/L858R, read-out: EGFR Ba/F3 cells IC 50 (nM) Assay 1 L718Q/L858R

Row | Structure (SMILES) | EGFR activity (% Control, 100 nM drug) L858R/T790M ([1]; Table G) [% Control] | EGFR activity (% Control, 100 nM drug) L858R ([2]; Table G) [% Control] | EGFR activity (% Control, 100 nM drug) Del/T790M [3] [% Control] | EGFR activity (% Control, 100 nM drug) Del ([4]; Table G) [% Control] | EGFR activity (% Control, 100 nM drug) L858R/T790M/L718Q [5] [% Control] | EGFR activity (% Control, 100 nM drug) L858R/T790M ([1]; Table F) [% Control] | EGFR activity (% Control, 100 nM drug) L858R ([2]; Table F) [% Control] | EGFR activity (% Control, 100 nM drug) DEL/T790M [3] [% Control] | EGFR activity (% Control, 100 nM drug) L858R/L718Q [6] [% Control] | EGFR activity (% Control, 100 nM drug) Del ([4]; Table F) [% Control] | IC50 [5] [nM] | IC50 [1] [nM] | IC50 [2] [nM] | IC50 [3] [nM] | IC50 [6] [nM] | IC50 [4] [nM]
1 | C=CC(=O)N1CCC[C@H]1C(=O)Nc1ccc(OC)c(Nc2cc(N(C)C(=O)NCc3ccccc3)ncn2)c1 [Compound 23A] | 111 | 99 | 102 | 106 | – | – | – | – | – | – | – | – | – | – | – | –
2 | C=CC(=O)Nc1cccc(Nc2cc(N(C)C(=O)Nc3ccc(F)c(Cl)c3)ncn2)c1 [Compound 19A] | – | – | – | – | 99 | 101 | 100 | 71 | 74 | 79 | – | – | – | – | – | –
3 | C=CC(=O)Nc1cccc(N(C(=O)NCc2ccccc2)c2cc(NC)ncn2)c1 [Compound 15A] | – | – | – | – | 86 | 48 | 3 | 107 | 81 | 47 | 3260 | 376 | 17.7 | 842 | 2150 | 91.9
4 | C=CC(=O)N1CC[C@H](CN(C(=O)Nc2ccccc2)c2cc(Nc3ccc(N4CCN(C)CC4)cc3OC)ncn2)C1 [Compound 33A] | 106 | 101 | 109 | 102 | – | – | – | – | – | – | – | – | – | – | – | –
5 | C=CC(=O)Nc1cccc(Nc2cc(N(C)C(=O)NCc3ccccc3)ncn2)c1 [Compound 17A] | – | – | – | – | 85 | 52 | 2 | 85 | 81 | 28 | 2500 | 275 | 7.62 | 682 | 1960 | 63.9
6 | C=CC(=O)Nc1cccc(N(C(=O)Nc2ccc(F)c(Cl)c2)c2cc(Nc3ccc(N4CCN(C)CC4)cc3OC)ncn2)c1 [Compound 22A] | – | – | – | – | 106 | 4 | 3 | 84 | 84 | 3 | – | – | – | – | – | –
7 | C=CC(=O)Nc1ccc(OC)c(Nc2cc(N(C)C(=O)Nc3ccc(F)c(Cl)c3)ncn2)c1 [Compound 18A] | – | – | – | – | 92 | 85 | 1 | 84 | 88 | 30 | – | – | – | – | – | –
8 | C=CC(=O)N1CCC[C@H]1C(=O)Nc1cc2c(N(CCOC)C(=O)NCc3ccccc3)ncnc2cc1OC [Compound 31A] | 112 | 108 | 110 | 111 | – | – | – | – | – | – | – | – | – | – | – | –
9 | C=CC(=O)N1CCC[C@@H]1C(=O)Nc1ccc(OC)c(Nc2cc(N(C)C(=O)NCc3ccccc3)ncn2)c1 [Compound 24A] | 108 | 84 | 101 | 95 | – | – | – | – | – | – | – | – | – | – | – | –
10 | COc1ccc(NC(=O)/C=C/CN(C)C)cc1Nc1cc(N(C)C(=O)Nc2ccccc2)ncn1 [Compound 20A] | – | – | – | – | 93 | 26 | 2 | 126 | 48 | 2 | 917 | 99.1 | 0.994 | 211 | 256 | 2.58
11 | C=CC(=O)Nc1ccc(OC)c(Nc2cc(N(C)C(=O)NCc3ccccc3)ncn2)c1 [Compound 16A] | – | – | – | – | 92 | 71 | 117 | 86 | 75 | 78 | – | – | – | – | – | –
12 | CN(C)C/C=C/C(=O)Nc1cccc(Nc2cc(N(C)C(=O)Nc3ccccc3)ncn2)c1 [Compound 21A] | – | – | – | – | 102 | 100 | 4 | 107 | 94 | 10 | – | – | – | – | – | –
13 | C=CC(=O)N1CC[C@@H](CN(C(=O)Nc2ccccc2)c2cc(Nc3ccc(N4CCN(C)CC4)cc3OC)ncn2)C1 [Compound 32A] | 110 | 99 | 106 | 104 | – | – | – | – | – | – | – | – | – | – | – | –
14 | C=CC(=O)Nc1cccc(Nc2cc(N(C)C(=O)Nc3ccccc3)ncn2)c1 [Compound 13A] | – | – | – | – | 89 | 71 | 3 | 90 | 90 | 13 | – | – | – | – | – | –
15 | C=CC(=O)N1CCC[C@H]1C(=O)Nc1cc2c(N(C)C(=O)Nc3ccccc3)ncnc2cc1OC [Compound 27A] | 102 | 87 | 76 | 95 | – | – | – | – | – | – | – | – | – | – | – | –
16 | C=CC(=O)Nc1cccc(Nc2cc(N(C(=O)NCc3ccccc3)c3ccc(N4CCN(C)CC4)cc3)ncn2)c1 [Compound 30A] | 103 | 10 | 104 | 94 | – | – | – | – | – | – | – | – | – | – | – | –
17 | COc1cc2ncnc(N(C)C(=O)Nc3ccccc3)c2cc1NC(=O)[C@@H]1CCCN1C(=O)CCl [Compound 28A] | 97 | 94 | 83 | 102 | – | – | – | – | – | – | – | – | – | – | – | –
18 | C=CC(=O)N1CCC[C@H]1C(=O)Nc1cc2c(N(C)C(=O)NCc3ccccc3)ncnc2cc1OC [Compound 5A, (S)-1-acryloyl-N-(4-(3-benzyl-1-methylureido)-7-methoxyquinazolin-6-yl)pyrrolidine-2-carboxamide] | 96 | 107 | 110 | 100 | – | – | – | – | – | – | – | – | – | – | – | –
19 | C=CC(=O)Nc1cccc(Nc2cc(N(C(=O)Nc3ccccc3)c3ccc(N4CCN(C)CC4)cc3)ncn2)c1 [Compound 26A] | 100 | 11 | 91 | 87 | – | – | – | – | – | – | – | – | – | – | – | –
